# Laboratory results published in patent US20160045529A1, “Pharmaceutical Compositions Containing Palmitoylethanolamide And Cytidine-Diphosphocholine And Methods Of Treatment Therewith” (EPITECH GROUP S.R.L., priority 2014, published 2016).
# Columns and labels:
# [1] = test system: middle cerebral artery occlusion in rats; assay: Middle cerebral artery occlusion by ligation in rats, infarction area; type: in vivo; conditions: MCAo, suspended in CMC 1.5%; for % Infarction Area: Only CMC = 100.00; for Infarction Area in mm^2: Only CMC control 38.5
# Text: Brain Res. 2012 Oct 5;1477:45-58]. Using such a method the maximum ineffective dose of the two substances, ultramicronized palmitoylethanolamide and cytidinediphosphocholine, administered separately orally suspended in carboxymethyl cellulose at 1.5% was initially sought. In the maximum ineffective doses found, the two substances were then mixed and administered together again suspended in CMC at 1.5%. The results obtained are collected in the following table 1 and the data of the synergic association between PEA and Citicoline are presented in FIGS. 1A-1B and FIGS. 2A-2B. FIGS. 1A-1B show images of coronal sections after occlusion of the middle cerebral artery (MCAo) in the absence (FIG. 1A), or in the presence of the combined treatment described above (FIG. 1B). FIG. 2 highlights the detected measurements of the infarctual area (FIG. 2A) and volume (FIG. 2B) in the absence or in the presence of the treatment.
# [2] = test system: stroke model from ligation of the middle cerebral artery; conditions: preclinical, optimal dose of 10 mg/kg; cited from earlier work
# [3] = test system: cranial trauma model; conditions: preclinical, optimal dose of 10 mg/kg; cited from earlier work
# [4] = test system: dementia from damage due to beta amyloid; conditions: preclinical, optimal dose of 10 mg/kg; cited from earlier work
compound,measurement,setting,value
"C[N+](C)(C)CCOP(=O)(O)OP(=O)([O-])OC[C@H]1O[C@@H](n2ccc(N)nc2=O)[C@H](O)[C@@H]1O [Citicoline, Cytidine-diphosphocholine]",% Infarction Area,[1]; 50 mg/kg orally,99.48%
same,Infarction Area in mm^2,[1]; 50 mg/kg orally,38.3 mm^2
CCCCCCCCCCCCCCCC(=O)NCCO [palmitoylethanolamide],effect in the stroke model,[2],substantial effect
same,effect in the cranial trauma model,[3],substantial effect
same,effect in the model of dementia from damage due to beta amyloid,[4],substantial effect
"CCCCCCCCCCCCCCCC(=O)NCCO [PEA-um, palmitoylethanolamide]",% Infarction Area,[1]; 1 mg/kg orally,99.22%
same,Infarction Area in mm^2,[1]; 1 mg/kg orally,38.2 mm^2
